# Tests used:
# [1] = target: Human cGAS amino acids 155-522 (Homo sapiens (Human), UniProt Q8N884); experiment: cGAS biochemical activity assay (ATP remaining, Kinase-Glo Max luminescence); conditions: human cGAS 155-522, ATP remaining (Kinase-Glo Max); read-out: cGAS IC50
# [2] = test system: cGAS/STING pathway in THP1 cells; experiment: THP1 cell-based cGAS/STING pathway activity assay (IRF-3-linked luciferase reporter); conditions: Homo sapiens, THP-1
# Summary of the method: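 THP1 cells carrying an IRF-3-driven luciferase reporter were read across a range of compound concentrations, and IC50 values were derived from these concentration responses; the assay upper limit was 100 μM.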
# Sequence of Human cGAS amino acids 155-522 (Q8N884 157-522): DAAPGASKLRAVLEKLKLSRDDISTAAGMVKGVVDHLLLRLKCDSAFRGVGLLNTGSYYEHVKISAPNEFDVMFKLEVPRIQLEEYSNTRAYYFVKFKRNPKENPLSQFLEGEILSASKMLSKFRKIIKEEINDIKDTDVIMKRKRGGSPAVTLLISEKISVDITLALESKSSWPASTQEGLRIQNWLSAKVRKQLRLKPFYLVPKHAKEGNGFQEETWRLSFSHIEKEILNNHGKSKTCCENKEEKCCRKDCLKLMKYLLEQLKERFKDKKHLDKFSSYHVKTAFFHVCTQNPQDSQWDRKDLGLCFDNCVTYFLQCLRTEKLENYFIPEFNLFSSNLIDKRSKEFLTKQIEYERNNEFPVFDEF
SMILES,IC50 [1],IC50 [2]
"COc1cnccc1NC(=O)c1c(C)[nH]c2c(-c3ccccc3)c(C(F)(F)F)nn2c1=O [Compound A1099, N-(3-methoxypyridin-4-yl)-5-methyl-7-oxo-3-phenyl-2-(trifluoromethyl)-4,7-dihydropyrazolo[1,5-a]pyrimidine-6-carboxamide]",20 to 250 µM,> 100 µM
"Cc1[nH]c2c(-c3ccccc3)c(C(F)(F)F)nn2c(=O)c1C(=O)Nc1ccccc1S(=O)(=O)C(C)C [Compound A1051, N-(2-(isopropylsulfonyl)phenyl)-5-methyl-7-oxo-3-phenyl-2-(trifluoromethyl)-4,7-dihydropyrazolo[1,5-a]pyrimidine-6-carboxamide]",< 20 µM,20 to 100 µM
"Cc1[nH]c2c(-c3ccccc3)c(C(F)(F)F)nn2c(=O)c1-c1nc2c(C)cccc2o1 [Compound C1060, 5-methyl-6-(4-methylbenzo[d]oxazol-2-yl)-3-phenyl-2-(trifluoromethyl)pyrazolo[1,5-a]pyrimidin-7(4H)-one]",< 20 µM,< 20 µM
"COc1cccc(NC(=O)Cc2c(C)[nH]c3c(-c4ccccc4)c(C(F)(F)F)nn3c2=O)c1 [Compound B1011, N-(3-methoxyphenyl)-2-(5-methyl-7-oxo-3-phenyl-2-(trifluoromethyl)-4,7-dihydropyrazolo[1,5-a]pyrimidin-6-yl)acetamide]",20 to 250 µM,20 to 100 µM
"COc1cc(C(N)=O)cc2oc(-c3c(C)[nH]c4c(-c5ccccc5)c(C(F)(F)F)nn4c3=O)nc12 [Compound C1149, 4-methoxy-2-(5-methyl-7-oxo-3-phenyl-2-(trifluoromethyl)-4,7-dihydropyrazolo[1,5-a]pyrimidin-6-yl)benzo[d]oxazole-6-carboxamide]",< 20 µM,20 to 100 µM
"COCCn1ccc(NC(=O)c2c(C)[nH]c3c(-c4ccccc4)c(C(F)(F)F)nn3c2=O)n1 [Compound A1115, N-(1-(2-methoxyethyl)-1H-pyrazol-3-yl)-5-methyl-7-oxo-3-phenyl-2-(trifluoromethyl)-4,7-dihydropyrazolo[1,5-a]pyrimidine-6-carboxamide]",20 to 250 µM,> 100 µM
"COc1cccc2oc(-c3c[nH]c4c(-c5ccccc5)c(C(F)(F)F)nn4c3=O)nc12 [Compound C1079, 6-(4-methoxybenzo[d]oxazol-2-yl)-3-phenyl-2-(trifluoromethyl)pyrazolo[1,5-a]pyrimidin-7(4H)-one]",> 250 µM,< 20 µM
"Cc1[nH]c2c(-c3ccccc3)c(C(F)(F)F)nn2c(=O)c1-c1nn(C(C)C)c(=O)o1 [Compound C1023, 3-isopropyl-5-(5-methyl-7-oxo-3-phenyl-2-(trifluoromethyl)-4,7-dihydropyrazolo[1,5-a]pyrimidin-6-yl)-1,3,4-oxadiazol-2(3H)-one]",< 20 µM,> 100 µM
"Cc1[nH]c2c(-c3ccccc3)c(C(F)(F)F)nn2c(=O)c1C(=O)Nc1ccccc1Cl [Compound A1033, N-(2-chlorophenyl)-5-methyl-7-oxo-3-phenyl-2-(trifluoromethyl)-4,7-dihydropyrazolo[1,5-a]pyrimidine-6-carboxamide]",20 to 250 µM,20 to 100 µM
"Cc1[nH]c2c(-c3ccccc3)c(C(F)(F)F)nn2c(=O)c1C(=O)Nc1cnn(C)c1 [Compound A1077, 5-methyl-N-(1-methyl-1H-pyrazol-4-yl)-7-oxo-3-phenyl-2-(trifluoromethyl)-4,7-dihydropyrazolo[1,5-a]pyrimidine-6-carboxamide]",< 20 µM,> 100 µM

# The remaining lines, values ahead:
IC50 [1],IC50 [2],SMILES
< 20 µM,> 100 µM,"Cc1[nH]c2c(-c3ccccc3)c(C(F)(F)F)nn2c(=O)c1-c1nnc(N2CCCC2)o1 [Compound D1014, 5-methyl-3-phenyl-6-(5-(pyrrolidin-1-yl)-1,3,4-oxadiazol-2-yl)-2-(trifluoromethyl)pyrazolo[1,5-a]pyrimidin-7(4H)-one]"
< 20 µM,< 20 µM,"COc1cccc2oc(-c3c(C(=O)NCCO)[nH]c4c(-c5ccccc5)c(C(F)(F)F)nn4c3=O)nc12 [Compound C1178, N-(2-hydroxyethyl)-6-(4-methoxybenzo[d]oxazol-2-yl)-7-oxo-3-phenyl-2-(trifluoromethyl)-4,7-dihydropyrazolo[1,5-a]pyrimidine-5-carboxamide]"
< 20 µM,> 100 µM,"C#Cc1nn2c(=O)c(-c3nc4c(OC)cccc4o3)c(C)[nH]c2c1-c1ccccc1 [Compound C1211, 2-ethynyl-6-(4-methoxybenzo[d]oxazol-2-yl)-5-methyl-3-phenylpyrazolo[1,5-a]pyrimidin-7(4H)-one]"
< 20 µM,> 100 µM,"COc1cccc2oc(-c3c(C(=O)NC4CCOCC4)[nH]c4c(-c5ccccc5)c(C(F)(F)F)nn4c3=O)nc12 [Compound C1194, 6-(4-methoxybenzo[d]oxazol-2-yl)-7-oxo-3-phenyl-N-(tetrahydro-2H-pyran-4-yl)-2-(trifluoromethyl)-4,7-dihydropyrazolo[1,5-a]pyrimidine-5-carboxamide]"
< 20 µM,> 100 µM,"CO[C@](c1ccccc1)(c1nnc(-c2c(C)[nH]c3c(-c4ccccc4)c(C(F)(F)F)nn3c2=O)o1)C(F)(F)F [Compound D1029, (R)-5-methyl-3-phenyl-6-(5-(2,2,2-trifluoro-1-methoxy-1-phenylethyl)-1,3,4-oxadiazol-2-yl)-2-(trifluoromethyl)pyrazolo[1,5-a]pyrimidin-7(4H)-one]"
< 20 µM,20 to 100 µM,"Cc1[nH]c2c(-c3ccccc3)c(C#N)nn2c(=O)c1-c1nc2c(N)cccc2o1 [Compound C1223, 6-(4-aminobenzo[d]oxazol-2-yl)-5-methyl-7-oxo-3-phenyl-4,7-dihydropyrazolo[1,5-a]pyrimidine-2-carbonitrile]"
< 20 µM,< 20 µM,"C=Cc1nn2c(=O)c(-c3nc4c(OC)cccc4o3)c(C)[nH]c2c1-c1ccccc1 [Compound C1241, 6-(4-methoxybenzo[d]oxazol-2-yl)-5-methyl-3-phenyl-2-vinylpyrazolo[1,5-a]pyrimidin-7(4H)-one]"
< 20 µM,20 to 100 µM,"COc1cccc2oc(-c3c(-c4conc4C)[nH]c4c(-c5ccccc5)c(C(F)(F)F)nn4c3=O)nc12 [Compound C1253, 6-(4-methoxybenzo[d]oxazol-2-yl)-5-(3-methylisoxazol-4-yl)-3-phenyl-2-(trifluoromethyl)pyrazolo[1,5-a]pyrimidin-7(4H)-one]"
< 20 µM,> 100 µM,"Cc1[nH]c2c(-c3ccccc3)c(C#N)nn2c(=O)c1-c1nc2cc(N)ccc2o1 [Compound C1181, 6-(5-aminobenzo[d]oxazol-2-yl)-5-methyl-7-oxo-3-phenyl-4,7-dihydropyrazolo[1,5-a]pyrimidine-2-carbonitrile]"
< 20 µM,< 20 µM,"COc1cc(C(C)O)cc2oc(-c3c(C)[nH]c4c(-c5ccccc5)c(C#N)nn4c3=O)nc12 (stereo not drawn) [Compound C1240, 6-(6-(1-hydroxyethyl)-4-methoxybenzo[d]oxazol-2-yl)-5-methyl-7-oxo-3-phenyl-4,7-dihydropyrazolo[1,5-a]pyrimidine-2-carbonitrile]"
< 20 µM,< 20 µM,"COc1cccc2oc(-c3c(C(=O)Nc4cn[nH]c4)[nH]c4c(-c5ccccc5)c(C(F)(F)F)nn4c3=O)nc12 [Compound C1244, 6-(4-methoxybenzo[d]oxazol-2-yl)-7-oxo-3-phenyl-N-(1H-pyrazol-4-yl)-2-(trifluoromethyl)-4,7-dihydropyrazolo[1,5-a]pyrimidine-5-carboxamide]"

# — patent US10738056B2 (Aduro BioTech, Inc., priority 2017, dated 2020)
